The test deals with T1, human OX2R (Homo sapiens, UniProt O43614).
T1 construct: expressed in transfected cells; host or cells: CHO (Chinese hamster ovary) cells, grown under G418 selection
T1 sequence (O43614 1-444): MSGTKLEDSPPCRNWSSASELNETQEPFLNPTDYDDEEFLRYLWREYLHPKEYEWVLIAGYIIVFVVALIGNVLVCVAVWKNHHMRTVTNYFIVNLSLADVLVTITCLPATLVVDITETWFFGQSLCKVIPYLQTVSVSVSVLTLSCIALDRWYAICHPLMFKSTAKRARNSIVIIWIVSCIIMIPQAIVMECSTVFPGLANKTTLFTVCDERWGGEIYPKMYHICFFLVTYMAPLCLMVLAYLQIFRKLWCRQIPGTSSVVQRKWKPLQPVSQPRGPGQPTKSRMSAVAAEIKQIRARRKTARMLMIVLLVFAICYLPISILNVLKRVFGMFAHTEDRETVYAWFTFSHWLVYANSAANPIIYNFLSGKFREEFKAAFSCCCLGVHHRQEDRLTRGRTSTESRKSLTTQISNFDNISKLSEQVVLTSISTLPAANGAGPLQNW
Briefly: IPOne (IP-1) orexin receptor agonist assay in CHO cells expressing human OX2R. The test is classed as cell-based. To be noted: for IC50: IPOne assay, CHO cells expressing human OX2R, 2 hours incubation, read-out: hoX2R_IP IC50. In a few lines:
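CHO cells with human OX2R treated 2 h at 37 °C with 10-point ½-log compound dilutions in stimulation buffer; IP-1 accumulation read by HTRF (665/620 nm) after 60 min detection. EC50 from four-parameter fit; % effect versus a 1 uM reference agonist.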

A word on the Emax: it is the maximal effect, on the per cent scale that the assay sets. In general, IC50 refers to the point on the concentration scale where inhibition reaches its midpoint.

Regarding `COC(=O)N1[C@H](C)C[C@H](NS(=O)(=O)N(C)C)[C@@H]1COC1CCC2(c3ncc(F)cn3)CC2C1` (stereo partly drawn) [Example 169, methyl (2R,3S,5R)-3-((N,N-dimethylsulfamoyl)amino)-2-(((6-(5-fluoropyrimidin-2-yl)bicyclo[4.1.0]heptan-3-yl)oxy)methyl)-5-methylpyrrolidine-1-carboxylate], the Emax (CHO, percent of mean max effect of a reference compound at 1 uM with 100% activity vs Orexin A, human OX2R) was determined as 100%.

On to `CC(C)OC(=O)N1[C@H](C)C[C@H](NS(=O)(=O)N(C)C)[C@@H]1COC1CCC2(c3ncccn3)CC2C1` (stereo partly drawn) [Example 174, isopropyl (2R,3S,5R)-3-((N,N-dimethylsulfamoyl)amino)-5-methyl-2-(((6-(pyrimidin-2-yl)bicyclo[4.1.0]heptan-3-yl)oxy)methyl)pyrrolidine-1-carboxylate], for which the half-inhibitory concentration (IC50) came to 7.5 nM.

For `COC(=O)N1[C@@H]2CCC[C@@H]2[C@H](NS(C)(=O)=O)[C@@H]1COC1CCC2(c3ncccn3)CC2C1` (stereo partly drawn) [Example 175, methyl (2R,3S,3aS,6aR)-3-(methylsulfonamido)-2-(((6-(pyrimidin-2-yl)bicyclo[4.1.0]heptan-3-yl)oxy)methyl)hexahydrocyclopenta[b]pyrrole-1(2H)-carboxylate], the IC50 came to 22.6 nM.

Regarding `COC(=O)N1CC[C@H](NS(C)(=O)=O)[C@@H]1COC1CCC2(c3ncccn3)CC2C1` (stereo partly drawn) [Example 185, methyl (2R,3S)-3-(methylsulfonamido)-2-(((6-(pyrimidin-2-yl)bicyclo[4.1.0]heptan-3-yl)oxy)methyl)pyrrolidine-1-carboxylate], the concentration for half-maximal inhibition (IC50) came out at 1620 nM.
